Experimental data from ChEMBL document CHEMBL2113921, “Open Source Malaria Deposition 1. http://malaria.ourexperiment.org” (2013).
Converted amounts (≈) assume the structure as drawn. Each block holds one compound with its values, some of them ahead of it.

Tests used:
[1] = test system: Plasmodium falciparum; test: OSM: Inhibition of Plasmodium falciparum 3D7 growth. IC50 values determined from 21 point dose response curves. Avery Group Griffith.; assay type: functional, organism-based
[2] = test system: Plasmodium falciparum; test: OSM: Inhibition of Plasmodium falciparum 3D7 growth using a SYBR green I fluorescence based assay. GSK Tres Cantos.; assay type: functional, organism-based
[3] = test system: Plasmodium falciparum; test: OSM: Inhibition of Plasmodium falciparum 3D7 growth using a SYBR green I fluorescence based assay. Dose response curves were generated comprising of 8 points using a 2-fold serial dilution for the maximum final concentration of 1000 nM. Ralph Group, Bio21.; assay type: functional, organism-based
[4] = OSM: Microsomal stability: 0.5 uM substrate, 0.4 mg/mL protein, NADPH cofactor). Analysed by LC/MS. In vitro CLint (uL/min/mg protein).; assay type: ADME, Microsome; details: human, microsomes
[5] = OSM: Microsomal stability: 0.5 uM substrate, 0.4 mg/mL protein, NADPH cofactor. Analysed by LC/MS. Degradation half life (min).; assay type: ADME, Microsome; details: human, microsomes
[6] = OSM: Microsomal stability: 0.5 uM substrate, 0.4 mg/mL protein, NADPH cofactor. Analysed by LC/MS. Degradation rate classification.; assay type: ADME, Microsome; details: human, microsomes
[7] = OSM: Kinetic solubility pH 6.5 isotonic phosphate buffer.; assay type: ADME
[8] = test system: Plasmodium falciparum; test: OSM: Percent inhibition of Plasmodium falciparum 3D7 growth at 120 uM. Avery Group Griffith.; assay type: functional
[9] = OSM: HEK293 cytotoxicity assay. Duplicate point single experiment at 120 uM. Avery Group, Griffith.; assay type: toxicity, cell-based; details: human, HEK293 cells; read-out: Inhibition
[10] = test system: Plasmodium falciparum K1; test: OSM: Percent inhibition of Plasmodium falciparum K1 growth at 120 uM. Avery Group Griffith.; assay type: functional
[11] = test system: Plasmodium falciparum K1; test: OSM: Inhibition of Plasmodium falciparum K1 growth. IC50 values determined from 21 point dose response curves. Avery Group Griffith.; assay type: functional, organism-based
[12] = test system: Plasmodium falciparum; test: OSM: Late stage gametocytes. IC50 values determined from 21 point dose response curves. Avery Group Griffith.; assay type: functional, organism-based; details: Pfs16-GFP transgenic NF54

Compound: COC(=O)c1coc(-c2cc(C)n(-c3ccc(F)cc3)c2C)n1
- IC50 [1]: > 40000 nM

Compound: Cc1cc(C(=O)NCC(=O)Nc2c(C)n(C)n(-c3ccccc3)c2=O)c(C)n1-c1ccc(F)cc1
- IC50 [2]: > 5000 nM
- IC50 [1]: 31000 nM
- IC50 [3]: > 1000 nM

Compound: Cc1c(-c2nc(C(=O)O)co2)cnn1-c1ccc(F)cc1
- IC50 [1]: > 40000 nM

Compound: NS(=O)(=O)c1cccc(CNc2ncnc3ccsc23)c1
- IC50 [1]: > 40000 nM

Compound: C[C@H]1[C@H](OC(=O)CCC(=O)O)O[C@@H]2O[C@@]3(C)CC[C@H]4[C@H](C)CC[C@@H]1[C@@]24OO3 [ARTESUNATE]
- IC50 [2]: 19 nM

- microsomal CLint at 0.5 µM [4]: 14 µL/min/mg
- half-life at 0.5 µM [5]: 2.02 h
- Relative metabolic rate [6]: Moderate
- solubility kinetic [7]: 5 µg/mL (≈ 9.81 µM)
Compound: Cc1cc(/C=C2\S/C(=N\c3ccccc3)N(C3CCCC3)C2=O)c(C)n1-c1ccc(C(F)(F)F)cc1
- IC50 [2]: 276 nM
- IC50 [1]: 34 nM
- IC50 [3]: 520 nM

Compound: COc1ccc(S(=O)(=O)N2CCC(Nc3ncnc4ccsc34)CC2)cc1
- IC50 [1]: > 40000 nM

Compound: COC(=O)[C@H](CO)NC(=O)c1cc(C)n(-c2ccc(F)cc2)c1C
- IC50 [1]: > 40000 nM

Compound: Cc1cc(C(=O)O)c(C)n1-c1ccc(C(F)(F)F)cc1
- inhibition at 120 µM [8]: 25%
- cytotoxicity at 120 µM [9]: 0%
- inhibition at 120 µM [10]: 0%

- microsomal CLint at 0.5 µM [4]: 15 µL/min/mg
- half-life at 0.5 µM [5]: 1.53 h
- Relative metabolic rate [6]: Moderate
- solubility kinetic [7]: 1 µg/mL (≈ 2.55 µM)
Compound: Cc1cc(/C=C2\S/C(=N\c3ccccc3)NC2=O)c(C)n1-c1ccc(F)cc1
- IC50 [11]: 361 nM
- IC50 [1]: 176 nM
- cytotoxicity at 120 µM [9]: 25%

Compound: Cc1cc(C(=O)O)c(C)n1-c1ccccc1
- inhibition at 120 µM [8]: 70%
- cytotoxicity at 120 µM [9]: 0%
- inhibition at 120 µM [10]: 50%

Compound: Cc1cc(/C=C2\SC(N(CC#N)c3ccccc3)=NC2=O)c(C)n1-c1ccc(C(F)(F)F)cc1
- IC50 [2]: > 5000 nM
- IC50 [3]: > 1000 nM

Compound: Cc1cc(C(=O)N(C)C)c(C)n1-c1ccc(F)cc1
- IC50 [1]: > 40000 nM

Compound: CCOC(=O)c1cc(C)n(-c2ccc(C)cc2)c1C
- inhibition at 120 µM [8]: 85%
- cytotoxicity at 120 µM [9]: 0%
- inhibition at 120 µM [10]: 50%

Compound: O=C1C(O)=C([C@H]2CC[C@H](c3ccc(Cl)cc3)CC2)C(=O)c2ccccc21 [ATOVAQUONE]
- IC50 [2]: 1 nM

Compound: Cc1cc(C(=O)OCC(=O)N(C)C)c(C)n1-c1ccc(F)cc1
- IC50 [1]: 11300 nM

Compound: Cc1cc(C(=O)N(C(=O)NC2CCCCC2)C2CCCCC2)c(C)n1-c1ccc(F)cc1
- IC50 [1]: 7800 nM

Compound: CC(=O)N(C1=NC(=O)/C(=C/c2cc(C)n(-c3ccc(C)cc3)c2C)S1)c1ccccc1
- IC50 [2]: 25 nM
- IC50 [1]: 326 nM
- IC50 [3]: 156 nM

Compound: c1ccc(CSc2nc[nH]n2)cc1
- IC50 [1]: > 40000 nM

Compound: Cc1cc(C(=O)N(C)CC(N)=O)c(C)n1-c1ccc(F)cc1
- IC50 [1]: > 40000 nM

Compound: Cc1cc(C=O)c(C)n1-c1ccccc1
- inhibition at 120 µM [8]: 55%
- cytotoxicity at 120 µM [9]: 25%
- inhibition at 120 µM [10]: 80%

Compound: Cc1c(C(=O)OCC(N)=O)cnn1-c1ccccc1
- IC50 [1]: > 40000 nM

Compound: C[C@@H]1CC[C@H]2[C@@H](C)C(=O)O[C@@H]3O[C@@]4(C)CC[C@@H]1[C@]32OO4 [ARTEMISININ]
- IC50 [11]: 1 nM
- IC50 [1]: 41100 nM
- cytotoxicity at 120 µM [9]: 25%

Compound: CCOC(=O)c1cc(C)n(-c2ccc(C(F)(F)F)cc2)c1C
- inhibition at 120 µM [8]: 85%
- cytotoxicity at 120 µM [9]: 75%
- inhibition at 120 µM [10]: 20%

Compound: Cc1cc(C(=O)NCC(=O)N(C)C)c(C)n1-c1ccccc1
- IC50 [1]: > 40000 nM

Compound: c1nc(N2CCOCC2)c2sccc2n1
- IC50 [1]: > 40000 nM

Compound: CNC(=O)COC(=O)c1cc(C)n(-c2ccc(F)cc2)c1C
- IC50 [1]: 9400 nM

- microsomal CLint at 0.5 µM [4]: < 7 µL/min/mg
- IC50 [12]: 3 nM
- half-life at 0.5 µM [5]: > 4.17 h
- Relative metabolic rate [6]: Low
- solubility kinetic [7]: 4 µg/mL (≈ 7.85 µM)
Compound: Cc1cc(/C=C2\S/C(=N\c3ccccc3)NC2=O)c(C)n1-c1cc(C(F)(F)F)cc(C(F)(F)F)c1
- IC50 [2]: 7 nM
- IC50 [1]: 1 nM
- IC50 [3]: 5 nM

Compound: Cc1cc(C(=O)O)c(C)n1-c1ccc(F)cc1
- inhibition at 120 µM [8]: 75%
- IC50 [2]: > 5000 nM
- cytotoxicity at 120 µM [9]: 20%
- inhibition at 120 µM [10]: 50%

Compound: CC(=O)N(C1=NC(=O)/C(=C/c2cc(C)n(-c3ccc(C(F)(F)F)cc3)c2C)S1)c1ccccc1
- IC50 [2]: 26 nM
- IC50 [1]: 12 nM
- IC50 [3]: 8 nM

Compound: Cc1cc(C(=O)CCC(=O)N(C)C)c(C)n1-c1ccc(F)cc1
- IC50 [1]: > 40000 nM

Compound: NS(=O)(=O)c1ccc(CNc2nc(-c3ccsc3)nc3ccccc23)cc1
- IC50 [1]: > 40000 nM

- microsomal CLint at 0.5 µM [4]: < 7 µL/min/mg
- half-life at 0.5 µM [5]: > 4.08 h
- Relative metabolic rate [6]: Low
- solubility kinetic [7]: 2 µg/mL (≈ 5.16 µM)
Compound: Cc1ccc(-n2c(C)cc(/C=C3\S/C(=N\c4ccccc4)NC3=O)c2C)cc1
- IC50 [2]: 28 nM
- IC50 [1]: 15 nM
- IC50 [3]: 9 nM

- IC50 [12]: 28 nM
Compound: CC(=O)N(C1=NC(=O)/C(=C/c2cc(C)n(-c3ccc(F)cc3)c2C)S1)c1ccccc1
- IC50 [11]: 66 nM
- IC50 [2]: 47 nM
- Relative metabolic rate [6]: Rapid non-NADPH acetamide hydrolysis to OSM-S-10
- IC50 [1]: 47 nM
- cytotoxicity at 120 µM [9]: 75%

Compound: Nc1ncnc2ccsc12
- IC50 [1]: > 40000 nM

Compound: Cc1cc(C(=O)N2CCNC(=O)C2)c(C)n1-c1ccccc1
- IC50 [1]: > 40000 nM

Compound: COC(=O)c1coc(-c2cnn(-c3ccc(F)cc3)c2C)n1
- IC50 [1]: > 40000 nM
